Experimental data: patent publication US6498246B1, “Glycosaminoglycan derivatives and processes for preparing same” (Seikagaku Corporation, priority 1998, dated 2002)
Where two headings read alike, the source gives them in different places.

Columns and labels:
mice = mice (males and females), cited from earlier work
[1] = system: primary culture cells of Wistar rat cerebral cortex cells; assay: Measurement of neurite outgrowth promoting activity; format: cell-based; design: neurite outgrowth promoting activity (in words, FIG. 3): dose or concentration left out as unconfirmed; details: for Neurite outgrowth promoting activity: 10 μg/ml, ratio of cerebral cortex cell masses showing neurite outgrowth after 2 days of culturing
Method: A fetus was aseptically excised from a Wistar rat in the 17th day of pregnancy (purchased from Japan SLC). The brain was excised from the fetus, and the cerebral cortex was obtained by removing the cerebellum, mid-brain, inter-brain and meninges in an un-sulfated DMEM medium (prepared by dissolving 500 mg of anhydrous CaCl2, 0.25 mg of Fe(NO)3/9H2O, 1,000 mg of KCl, 193.3 mg of MgCl2, 9,250 mg of NaHCO3, 312.5 mg of NaH2PO4/H2O, 37.5 mg of Phenol Red, 275 mg of sodium pyruvate, 100 ml of MEM amino acid (No. 11130-051, manufactured by Gibco), 75 mg of L-glycine, 1,460 mg of L-glutamine, 105 mg of L-serine, 100 ml of MEM vitamin solution (No. 11120-052, manufactured by Gibco), 15,150 mg of NaCl and 11,250 mg of D-glucose in 2.5 L of sterilized distilled water and adjusting the solution to pH 7.2).
Cerebral cortexes obtained from 10 animals were finely sliced 100 times in both lengthwise and crosswise with a safety razor on a 60 mm dish, and the cerebral cortex slices were mixed twice with 10 ml of phosphate-buffered saline (PBS) and dispensed into a 50 ml capacity Falcon tube to which was subsequently added 11 ml of the un-sulfated DMEM medium. While uniformly suspending by gentle shaking, this was dispensed in 0.5 ml portions into wells of a 24 well plate (bottom area, 2 cm^2) which had been coated with 0.1% polyethylene imine. After 2 hours of the commencement of culturing, 100 μl of each sample was taken out, and 50 μl of PBS containing each substance to be tested having 10 time concentration of its final concentration and 50 μl of 400 μM chloric acid/un-sulfated DMEM medium were added. After 2 days of culturing at 37° C. under 5% CO2, 500 μl of 1% glutaraldehyde/PBS was gently over-layered to carry out 20 minutes of fixation at room temperature. After removing the supernatant by suction, 0.5 ml of PBS was slowly over-layered and then immediately removed by suction. A 20% Giemsa solution/potassium phosphate buffer was over-layered and allowed to stand for 2 hours at room temperature. After removing the supernatant by suction, 0.5 ml of PBS was added.

blood plasma [2] = assay: Measurement of APTT (activated partial thromboplastin time); format: biochemical, rat; details: for APTT activity: concentration of standard heparin giving APTT 100 seconds as percentage of that of the substance, standard heparin = 100; for APTT (3 μg/ml): final concentration 3 μg/ml
Method: For the measurement of APTT, blood was collected from rat lower aorta by 3.2% citric acid {fraction (1/10 )} volume and centrifuged at 1,000×g for 10 minutes, and 100 μl of the thus obtained blood plasma and 100 μl of each sample having varied concentration were put into a measuring cup and incubated at 37° C. for 1 minute. Thereafter, 100 μl of Actin (trade name, Yoshitomi Pharmaceutical) which had been incubated in advance at 37° C. was added thereto, and the incubation was continued for 2 minutes. Next, 100 μl of 0.02 M CaCl2 solution which had been incubated in advance at 37° C. was added thereto, and the period of time from this point until generation of coagulation was measured using a blood coagulation automatic measuring apparatus (KC-10A: manufactured by Amelung). Also, in Table 2, the final concentration of each of the inventive substance and standard heparin in the medium, by which the APTT value becomes 100 seconds, was obtained to calculate the concentration of the standard heparin as percentage based on the concentration of the inventive substance, and this value (%) was used as the APTT activity of the inventive substance.

blood plasma [3] = assay: Measurement of TT (thrombin time); format: biochemical, rat; details: for TT activity: concentration of standard heparin giving TT 100 seconds as percentage of that of the substance, standard heparin = 100; for TT activity/APTT activity: ratio of TT activity to APTT activity
Method: For the measurement of TT, 100 μl of the blood plasma and 100 μl of each sample having varied concentration were put into a measuring cup and incubated at 37° C. for 1 minute. Thereafter, 100 μl of thrombin (10 U/ml) incubated in advance at 37° C. was added thereto, and the period of time from this point until generation of coagulation was measured using the blood coagulation automatic measuring apparatus. In Table 2, the final concentration of each of the inventive substance and standard heparin in the medium, by which the TT value becomes 100 seconds, was obtained to calculate the concentration of the standard heparin as percentage based on the concentration of the inventive substance, and this value (%) was used as the TT activity of the inventive substance.

[4] = Anticoagulation activity of the standard heparin; details: property of the standard heparin preparation
NSC-34 cells = assay: Measurement of neural cell death inhibition activity; format: cell-based, mouse
Method: That is, culturing was carried out by adding 0.09 ml of serum-free DMEM medium containing 1×10^5 of NSC-34 cells (received from Dr. Cashman (Toronto University): a mouse motor neuron-derived cultured cell strain) to a 96 well multi-plate which had been treated with 0.1% polyethylene imine in advance. Two hours after culturing, 10 μl of 100, 1,000 or 10,000 μg/ml aqueous solution of the inventive substance was added to respective wells (the final concentration in the medium is 10, 100 or 1,000 μg/ml). Thereafter, culturing was continued for 46 hours, and the number of survived cells was measured by the MTT process using a hemocytometer. By comparing with the number of survived cells after 2 hours of the culturing, the number of dead cells after 48 hours of the culturing of a control in which the inventive substance was not added was defined as 100%, and the ratio of difference from the number of dead cells when the inventive substance was added (the number of cells rescued from the cell death) was calculated as percentage (FIG. 6).

[5] = system: sialidase (homogenate of NSC-34 cells); assay: Measurement of sialidase activity with [3H]GM2 substrate; format: biochemical, mouse
Method: Into a 15 ml capacity glass tube, 1 mg of GM2 ganglioside (manufactured by IATRON) was put, and dissolved by adding 0.8 ml of distilled water, followed by sonication. To the resulting solution, 0.1 ml of PdCl2 solution (a supernatant fraction obtained by adding PdCl2 to distilled water to a concentration of 25 mg/ml, followed by sonication for 30 minutes, and then centrifuging the mixture at 2,000×g) was added, followed by stirring. […]
After the incubation, this was mixed with 5 ml of distilled water, applied to Sep-pak C18 cartridge column (manufactured by Waters) and eluted with methanol (3 ml) and then with chloroform : methanol (1:1 (v/v), 3 ml). The eluate was applied to DEAE-Sephadex A-25 column (manufactured by Pharmacia: 1 ml resin, swelled with methanol) and eluted with chloroform:methanol (1:1 (v/v), 3 ml), and then the eluate was dried to measure and compare radioactivity by a liquid scintillation counter. Radioactivity of a control in which 10 μl of distilled water was added instead of the standard heparin or inventive-substance was defined as 100% (FIG. 7). […]

Row | Substance | LD50 (mice; intravenous injection) | LD50 (mice; oral administration) | LD50 (mice; subcutaneous or intraperitoneal administration) | Neurite outgrowth promoting activity [1] | APTT activity (blood plasma [2]) | APTT (3 μg/ml) (blood plasma [2]) | TT activity (blood plasma [3]) | TT activity/APTT activity (blood plasma [3]) | anticoagulation activity [4] | neurite outgrowth promoting activity (in words, FIG. 3) [1] | cells rescued from cell death (NSC-34 cells; 100 μg/ml aqueous solution added, NSC-34 cells) | activity to inhibit cell death and rescue the cells (NSC-34 cells; 100 and 1,000 μg/ml aqueous solution added, NSC-34 cells, 48 hours, MTT) | neurite outgrowth promoting activity in the survived cells (NSC-34 cells; survived NSC-34 cells) | sialidase inhibition activity compared with standard heparin ([5]; 10 μl of 10 μg/ml aqueous solution, 37° C., 1 hour (FIG. 7)) | sialidase inhibition activity compared with NeuAc2en ([5]; 10 μl of 10, 100 or 1,000 μg/ml aqueous solution (FIG. 8))
1 | heparin | about 1,000 mg/kg | ≥ 5,000 mg/kg | ≥ 2,500 mg/kg | – | – | – | – | – | – | – | – | – | – | – | –
2 | heparin sodium salt [Standard heparin, reference compound] | – | – | – | 15.0% | 100% | 248 s | 100% | 1 | 160 IU/mg | – | – | – | – | – | –
3 | selectively 2-O-desulfated periodic acid oxidation-reduction heparin [Inventive substance] | – | – | – | 29.7% | 2% | 32 s | 0.37% | 0.185 | – | sharp increase in the neurite outgrowth promoting activity | about half the number of cells is rescued from cell death | markedly inhibit cell death | neurite outgrowth promoting activity was observed | stronger activity to inhibit sialidase which degrades ganglioside than the standard heparin | stronger sialidase inhibition activity than that of NeuAc2en
